# Laboratory results taken from ChEMBL document CHEMBL5465560, “Selectivity Literature for EUbOPEN Chemogenomic Library” (2024).
# Key:
# [1] = target: G protein-coupled receptor kinase 5 (Homo sapiens, UniProt P34947); experiment: Selectivity interaction (Kinase panel (Z-LYTE Assay)) EUB0001632a GRK5; settings: at 10 µM
# [2] = target: T1, Kinase suppressor of Ras 2 (Homo sapiens) (UniProt Q6VAB6); experiment: Selectivity interaction (Kinase panel (Z-LYTE Assay)) EUB0001632a KSR2; settings: at 10 µM
# T1 sequence (whole entry): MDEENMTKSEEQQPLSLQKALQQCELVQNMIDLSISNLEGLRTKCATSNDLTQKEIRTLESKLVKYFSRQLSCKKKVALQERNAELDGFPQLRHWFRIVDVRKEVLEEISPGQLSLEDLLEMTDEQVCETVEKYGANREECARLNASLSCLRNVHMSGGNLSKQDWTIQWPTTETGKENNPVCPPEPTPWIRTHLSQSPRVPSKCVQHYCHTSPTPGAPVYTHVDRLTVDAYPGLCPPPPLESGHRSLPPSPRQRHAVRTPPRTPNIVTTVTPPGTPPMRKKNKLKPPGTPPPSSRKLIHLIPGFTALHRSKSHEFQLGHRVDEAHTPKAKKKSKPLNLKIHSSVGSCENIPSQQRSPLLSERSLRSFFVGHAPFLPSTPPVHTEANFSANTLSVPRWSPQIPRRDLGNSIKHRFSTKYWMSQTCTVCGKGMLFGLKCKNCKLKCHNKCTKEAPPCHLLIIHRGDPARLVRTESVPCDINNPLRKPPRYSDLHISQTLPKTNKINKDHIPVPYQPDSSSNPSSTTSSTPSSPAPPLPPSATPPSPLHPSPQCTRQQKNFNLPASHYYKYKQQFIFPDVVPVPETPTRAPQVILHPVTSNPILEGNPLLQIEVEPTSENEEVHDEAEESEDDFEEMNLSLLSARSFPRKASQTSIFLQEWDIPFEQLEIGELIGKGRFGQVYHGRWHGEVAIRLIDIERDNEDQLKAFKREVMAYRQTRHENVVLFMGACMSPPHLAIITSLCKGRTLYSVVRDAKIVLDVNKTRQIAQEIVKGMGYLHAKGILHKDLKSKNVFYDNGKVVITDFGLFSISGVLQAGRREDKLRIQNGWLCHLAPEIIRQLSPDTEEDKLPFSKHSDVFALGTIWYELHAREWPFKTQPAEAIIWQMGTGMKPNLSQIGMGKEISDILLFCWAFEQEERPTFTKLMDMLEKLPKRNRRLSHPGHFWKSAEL
# [3] = target: Tyrosine-protein kinase Lyn (Homo sapiens, UniProt P07948); experiment: Selectivity interaction (KinomeScan (DiscoverX)) EUB0000666a LYN; settings: at 10 µM
# [4] = target: Tyrosine-protein kinase Srms (Homo sapiens) (UniProt Q9H3Y6); experiment: Selectivity interaction (KinomeScan (DiscoverX)) EUB0000607a SRMS; settings: at 10 µM
# [5] = target: T2, Activin receptor type-1B (Homo sapiens) (UniProt P36896); settings: at 10 µM
# T2 sequence (whole entry): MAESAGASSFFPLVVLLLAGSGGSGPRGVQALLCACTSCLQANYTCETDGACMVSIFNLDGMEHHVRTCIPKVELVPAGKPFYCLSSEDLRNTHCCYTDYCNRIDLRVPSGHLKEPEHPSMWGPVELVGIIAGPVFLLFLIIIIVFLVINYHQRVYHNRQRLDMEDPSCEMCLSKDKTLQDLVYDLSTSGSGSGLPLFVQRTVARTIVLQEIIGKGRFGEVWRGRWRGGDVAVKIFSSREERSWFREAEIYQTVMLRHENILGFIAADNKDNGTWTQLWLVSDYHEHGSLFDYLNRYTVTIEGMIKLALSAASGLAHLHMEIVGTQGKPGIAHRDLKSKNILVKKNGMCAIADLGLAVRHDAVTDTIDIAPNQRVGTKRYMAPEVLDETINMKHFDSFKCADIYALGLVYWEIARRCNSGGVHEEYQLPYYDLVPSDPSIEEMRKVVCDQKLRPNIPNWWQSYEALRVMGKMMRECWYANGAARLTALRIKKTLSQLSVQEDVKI
# [6] = target: Serine/threonine-protein kinase 33 (Homo sapiens) (UniProt Q9BYT3); experiment: Selectivity interaction (Kinase panel (Invitrogen)) EUB0000639a STK33; settings: at 200 nM
# [7] = target: Tyrosine-protein kinase Blk (Homo sapiens) (UniProt P51451); experiment: Selectivity interaction (Kinase screening (Upstate/Millipore)) EUB0000604a BLK
# [8] = target: T3, Aurora kinase C (Homo sapiens) (UniProt Q9UQB9); experiment: Selectivity interaction (KinomeScan (DiscoverX)) EUB0000655a AURKC; settings: at 10 µM
# T3 sequence (whole entry): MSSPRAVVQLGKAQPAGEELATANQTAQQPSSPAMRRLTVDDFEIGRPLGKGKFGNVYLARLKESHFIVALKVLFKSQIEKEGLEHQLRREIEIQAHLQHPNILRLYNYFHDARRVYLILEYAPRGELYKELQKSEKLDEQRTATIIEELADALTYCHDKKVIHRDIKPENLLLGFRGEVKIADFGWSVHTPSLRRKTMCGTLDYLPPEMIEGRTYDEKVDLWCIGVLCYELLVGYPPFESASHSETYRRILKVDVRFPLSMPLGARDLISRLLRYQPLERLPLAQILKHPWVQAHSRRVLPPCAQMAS
# [9] = target: T4, Serine/threonine-protein kinase 17B (Homo sapiens) (UniProt O94768); experiment: Selectivity interaction (KinomeScan (DiscoverX)) EUB0000045b STK17B
# T4 sequence (whole entry): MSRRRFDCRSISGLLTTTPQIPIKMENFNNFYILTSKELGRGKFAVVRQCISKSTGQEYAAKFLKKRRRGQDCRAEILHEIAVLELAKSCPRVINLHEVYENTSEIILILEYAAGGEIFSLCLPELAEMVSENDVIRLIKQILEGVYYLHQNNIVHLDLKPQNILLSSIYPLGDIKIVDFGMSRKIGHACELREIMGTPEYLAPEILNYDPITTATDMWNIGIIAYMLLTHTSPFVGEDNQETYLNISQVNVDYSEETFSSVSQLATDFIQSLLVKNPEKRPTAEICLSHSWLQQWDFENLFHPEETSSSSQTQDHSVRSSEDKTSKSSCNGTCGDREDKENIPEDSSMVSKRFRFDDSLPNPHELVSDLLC
# [10] = target: T2, Activin receptor type-1B (Homo sapiens); experiment: Selectivity interaction (KinomeScan (DiscoverX)) EUB0000045b ACVR1B
# [11] = system: Tyrosine-protein kinase ABL1 (Homo sapiens), P00519 [T315I]; experiment: Selectivity interaction (KinomeScan (DiscoverX)) EUB0000045b ABL1; settings: at 10 µM
# [12] = system: Phosphatidylinositol 4,5-bisphosphate 3-kinase catalytic subunit alpha isoform (Homo sapiens), P42336 [I800L]; settings: at 10 µM
# [13] = target: Glycogen synthase kinase-3 alpha (Homo sapiens, UniProt P49840); experiment: Selectivity interaction (KinomeScan (DiscoverX)) EUB0001619a GSK3A; settings: at 1 µM
# Sequence of Glycogen synthase kinase-3 alpha (P49840 2-483 limits assumed): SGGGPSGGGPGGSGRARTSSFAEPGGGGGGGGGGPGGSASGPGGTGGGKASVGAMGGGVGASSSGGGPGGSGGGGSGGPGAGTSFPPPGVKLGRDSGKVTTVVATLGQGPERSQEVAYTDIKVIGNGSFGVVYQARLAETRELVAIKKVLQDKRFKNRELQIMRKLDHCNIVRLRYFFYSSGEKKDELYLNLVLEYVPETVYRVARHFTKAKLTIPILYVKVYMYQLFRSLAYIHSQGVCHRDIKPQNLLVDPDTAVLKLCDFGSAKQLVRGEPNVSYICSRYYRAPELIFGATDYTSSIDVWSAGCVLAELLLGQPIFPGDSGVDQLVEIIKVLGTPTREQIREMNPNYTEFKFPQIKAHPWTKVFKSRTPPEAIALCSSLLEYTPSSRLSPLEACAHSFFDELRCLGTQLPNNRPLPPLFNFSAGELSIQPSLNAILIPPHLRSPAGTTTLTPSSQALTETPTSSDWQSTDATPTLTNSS
# Sequence of Tyrosine-protein kinase Srms (Homo sapiens) (Q9H3Y6 whole entry): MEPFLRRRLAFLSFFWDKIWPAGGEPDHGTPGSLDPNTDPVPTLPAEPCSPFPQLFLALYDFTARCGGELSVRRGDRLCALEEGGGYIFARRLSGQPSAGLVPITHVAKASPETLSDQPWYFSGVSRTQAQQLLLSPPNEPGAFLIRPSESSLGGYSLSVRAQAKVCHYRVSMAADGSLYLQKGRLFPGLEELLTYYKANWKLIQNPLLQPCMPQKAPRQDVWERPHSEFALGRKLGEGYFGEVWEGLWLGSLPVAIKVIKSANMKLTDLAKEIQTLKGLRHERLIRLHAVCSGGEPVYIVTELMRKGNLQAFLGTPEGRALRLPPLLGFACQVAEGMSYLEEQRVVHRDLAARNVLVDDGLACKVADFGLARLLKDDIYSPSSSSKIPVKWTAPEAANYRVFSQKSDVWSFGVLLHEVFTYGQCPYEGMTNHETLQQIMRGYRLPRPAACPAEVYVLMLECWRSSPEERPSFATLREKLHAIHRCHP
# Sequence of Tyrosine-protein kinase Blk (Homo sapiens) (P51451 2-505 limits assumed): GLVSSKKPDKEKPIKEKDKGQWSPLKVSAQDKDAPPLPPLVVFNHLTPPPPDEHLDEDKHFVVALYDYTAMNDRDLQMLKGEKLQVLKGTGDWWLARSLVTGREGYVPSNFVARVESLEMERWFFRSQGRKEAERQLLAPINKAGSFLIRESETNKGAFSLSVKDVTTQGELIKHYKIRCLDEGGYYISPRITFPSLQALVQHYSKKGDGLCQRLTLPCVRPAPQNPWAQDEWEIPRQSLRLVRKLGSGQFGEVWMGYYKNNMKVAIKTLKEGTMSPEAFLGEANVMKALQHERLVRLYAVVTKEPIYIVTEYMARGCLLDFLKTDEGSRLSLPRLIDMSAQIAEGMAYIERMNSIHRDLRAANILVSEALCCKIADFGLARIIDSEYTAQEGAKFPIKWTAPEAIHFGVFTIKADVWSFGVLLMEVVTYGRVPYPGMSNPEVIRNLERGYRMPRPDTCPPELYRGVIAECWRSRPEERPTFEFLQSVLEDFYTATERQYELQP
# Sequence of Phosphatidylinositol 4,5-bisphosphate 3-kinase catalytic subunit alpha isoform (Homo sapiens), P42336 [I800L] (P42336 whole entry I800L, canonical isoform): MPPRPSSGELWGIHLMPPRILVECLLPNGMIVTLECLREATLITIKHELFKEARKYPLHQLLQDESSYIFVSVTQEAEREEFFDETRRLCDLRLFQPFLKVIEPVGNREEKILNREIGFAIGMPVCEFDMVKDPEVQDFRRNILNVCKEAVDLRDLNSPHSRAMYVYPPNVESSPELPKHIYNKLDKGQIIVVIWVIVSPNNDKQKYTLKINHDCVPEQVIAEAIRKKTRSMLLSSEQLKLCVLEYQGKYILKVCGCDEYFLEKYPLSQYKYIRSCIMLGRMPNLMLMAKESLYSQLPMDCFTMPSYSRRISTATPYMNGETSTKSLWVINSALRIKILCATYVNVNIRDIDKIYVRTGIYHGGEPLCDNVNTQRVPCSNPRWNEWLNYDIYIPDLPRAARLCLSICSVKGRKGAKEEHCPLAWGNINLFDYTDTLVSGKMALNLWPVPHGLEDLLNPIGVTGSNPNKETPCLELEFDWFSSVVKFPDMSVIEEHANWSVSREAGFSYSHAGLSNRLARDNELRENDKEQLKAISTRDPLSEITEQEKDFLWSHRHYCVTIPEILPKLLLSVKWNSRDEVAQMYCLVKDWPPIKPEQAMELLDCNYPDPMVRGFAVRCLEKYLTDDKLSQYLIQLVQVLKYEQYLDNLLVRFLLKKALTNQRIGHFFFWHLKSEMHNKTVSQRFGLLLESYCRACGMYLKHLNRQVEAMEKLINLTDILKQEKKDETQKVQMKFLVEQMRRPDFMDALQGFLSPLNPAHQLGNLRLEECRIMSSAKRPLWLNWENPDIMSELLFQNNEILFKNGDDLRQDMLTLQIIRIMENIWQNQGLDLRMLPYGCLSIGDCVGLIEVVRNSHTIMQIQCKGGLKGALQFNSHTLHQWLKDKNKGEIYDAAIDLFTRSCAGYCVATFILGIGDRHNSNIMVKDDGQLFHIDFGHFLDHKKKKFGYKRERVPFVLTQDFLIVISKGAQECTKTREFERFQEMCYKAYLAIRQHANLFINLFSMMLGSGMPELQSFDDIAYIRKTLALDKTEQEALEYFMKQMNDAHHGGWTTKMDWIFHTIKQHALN
# Sequence of G protein-coupled receptor kinase 5 (P34947 whole entry, looked up): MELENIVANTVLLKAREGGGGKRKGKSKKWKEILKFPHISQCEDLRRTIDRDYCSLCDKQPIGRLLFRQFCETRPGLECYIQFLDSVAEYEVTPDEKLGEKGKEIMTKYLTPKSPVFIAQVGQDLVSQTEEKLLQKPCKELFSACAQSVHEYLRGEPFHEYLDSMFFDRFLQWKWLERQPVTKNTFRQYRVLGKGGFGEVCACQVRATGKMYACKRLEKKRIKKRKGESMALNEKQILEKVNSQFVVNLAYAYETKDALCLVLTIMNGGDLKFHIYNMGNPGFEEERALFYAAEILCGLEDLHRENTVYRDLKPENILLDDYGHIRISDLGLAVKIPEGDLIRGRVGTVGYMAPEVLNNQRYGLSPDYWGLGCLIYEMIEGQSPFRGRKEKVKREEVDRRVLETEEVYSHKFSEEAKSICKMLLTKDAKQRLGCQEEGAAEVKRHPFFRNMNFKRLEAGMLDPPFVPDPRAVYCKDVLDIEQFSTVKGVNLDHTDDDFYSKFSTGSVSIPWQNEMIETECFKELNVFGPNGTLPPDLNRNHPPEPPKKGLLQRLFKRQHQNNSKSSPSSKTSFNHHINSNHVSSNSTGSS
# Sequence of Tyrosine-protein kinase Lyn (P07948 2-512 limits assumed): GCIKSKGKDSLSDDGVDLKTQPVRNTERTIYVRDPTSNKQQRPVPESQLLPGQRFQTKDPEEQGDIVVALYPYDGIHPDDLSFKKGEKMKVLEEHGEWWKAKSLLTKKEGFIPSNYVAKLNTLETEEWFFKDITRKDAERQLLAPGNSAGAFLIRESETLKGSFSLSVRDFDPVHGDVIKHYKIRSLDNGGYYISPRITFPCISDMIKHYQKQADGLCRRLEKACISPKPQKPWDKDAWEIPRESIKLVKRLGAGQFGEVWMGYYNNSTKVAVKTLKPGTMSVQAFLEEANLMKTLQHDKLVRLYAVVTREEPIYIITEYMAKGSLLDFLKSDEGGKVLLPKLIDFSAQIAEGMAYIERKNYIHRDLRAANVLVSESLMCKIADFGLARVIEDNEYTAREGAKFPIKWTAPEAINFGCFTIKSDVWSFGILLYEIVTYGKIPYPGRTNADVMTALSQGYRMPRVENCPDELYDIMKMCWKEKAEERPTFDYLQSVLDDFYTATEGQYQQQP
# Sequence of Serine/threonine-protein kinase 33 (Homo sapiens) (Q9BYT3 whole entry, looked up): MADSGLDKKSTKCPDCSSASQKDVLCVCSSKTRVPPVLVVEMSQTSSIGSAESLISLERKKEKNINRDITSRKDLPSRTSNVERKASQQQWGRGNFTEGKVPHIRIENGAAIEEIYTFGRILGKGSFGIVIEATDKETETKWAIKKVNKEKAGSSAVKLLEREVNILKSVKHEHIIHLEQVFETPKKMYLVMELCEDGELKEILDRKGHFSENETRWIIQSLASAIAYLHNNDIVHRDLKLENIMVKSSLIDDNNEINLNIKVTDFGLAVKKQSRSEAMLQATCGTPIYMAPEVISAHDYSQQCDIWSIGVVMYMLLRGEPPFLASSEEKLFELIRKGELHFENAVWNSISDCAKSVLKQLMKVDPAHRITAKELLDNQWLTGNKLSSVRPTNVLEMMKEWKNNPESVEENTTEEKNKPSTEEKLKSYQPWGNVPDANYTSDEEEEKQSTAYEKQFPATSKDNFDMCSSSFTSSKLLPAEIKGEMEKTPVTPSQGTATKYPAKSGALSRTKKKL
compound,measurement,setting,value
Cn1cc(-n2cnc3c(NCc4nc5cc(Cl)c(Cl)cc5[nH]4)nc(N4CCOCC4)nc32)cn1,% of control,[1],-0.027%
same,% of control,[2],1.65%
O=C(NOC[C@H](O)CO)c1ccc(F)c(F)c1Nc1ccc(I)cc1F,% of control,[3],72%
CNC(=O)Nc1ccc(-c2nc(N3CC4CCC(C3)O4)c3cnn(C4CCC5(CC4)OCCO5)c3n2)cc1,% of control,[4],97%
CCN(CC)CCCCNc1ncc2cc(-c3cc(OC)cc(OC)c3)c(NC(=O)NC(C)(C)C)nc2n1,% of control,[5],100%
CC[C@@H]1[C@H](F)C(=O)N[C@@H]1COc1nccc2cc(C(N)=O)c(OC)cc12 [ZIMLOVISERTIB],% of inhibition,[6],6.96%
Cc1cnc(Nc2ccc(F)cc2Cl)nc1-c1c[nH]c(C(=O)N[C@H](CO)c2cccc(Cl)c2)c1,% of inhibition,[7],7%
CN(C)CCOc1ccc(-c2nc(-c3ccncc3)c(-c3ccc4c(c3)CC/C4=N\O)[nH]2)cc1,% of control,[8],100%
C=CC(=O)Nc1cc(-n2c(=O)ccc3cnc4ccc(-c5ccc(NS(C)(=O)=O)cc5)cc4c32)ccc1C,% of control,[9]; at 1 µM,100%
same,% of control,[9]; at 10 µM,100%
same,% of control,[10]; at 1 µM,84%
same,% of control,[10]; at 10 µM,100%
same,% of control,[11],100%
CCC(=O)N1CCN(c2ccc(-n3c(=O)ccc4cnc5ccc(-c6cnc7ccccc7c6)cc5c43)cc2C(F)(F)F)CC1,% of control,[12],0%
N#Cc1cccc(-c2c[nH]c3ncnc(N4CCOCC4)c23)c1,% of control,[13],100%
